Series [1] can be described thus: Oral bioavailability in dog. To be noted: in vivo. It is filed as ADME, organism-based, Canis lupus familiaris.
A short description of series [2]: Half life in rat. Format: ADME, organism-based. To be noted: in vivo.
A short description of series [3]: Oral bioavailability in rat. Format: ADME, organism-based. The following applies: in vivo.
The species entered for a further series is Cavia porcellus. Nature of the series: Inhibition of CCL3-induced immune cell recruitment in guinea pig sensitization model. It is filed as functional, organism-based.
The target of series [4] is C-C chemokine receptor type 5 (Homo sapiens, UniProt P51681).
Sequence of C-C chemokine receptor type 5 (P51681 whole entry): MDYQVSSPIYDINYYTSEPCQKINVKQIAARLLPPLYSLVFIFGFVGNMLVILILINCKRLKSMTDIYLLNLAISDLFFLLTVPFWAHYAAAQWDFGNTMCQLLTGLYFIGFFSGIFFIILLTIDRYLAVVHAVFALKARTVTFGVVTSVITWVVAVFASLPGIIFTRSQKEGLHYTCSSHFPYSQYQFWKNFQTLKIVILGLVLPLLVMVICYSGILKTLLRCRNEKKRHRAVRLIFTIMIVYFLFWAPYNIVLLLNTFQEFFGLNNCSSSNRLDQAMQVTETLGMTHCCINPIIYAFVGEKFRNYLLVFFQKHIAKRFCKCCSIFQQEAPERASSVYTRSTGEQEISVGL
Series [5] has as its target T1, C-C chemokine receptor type 1 (Homo sapiens, UniProt P32246).
T1 sequence (P32246 whole entry): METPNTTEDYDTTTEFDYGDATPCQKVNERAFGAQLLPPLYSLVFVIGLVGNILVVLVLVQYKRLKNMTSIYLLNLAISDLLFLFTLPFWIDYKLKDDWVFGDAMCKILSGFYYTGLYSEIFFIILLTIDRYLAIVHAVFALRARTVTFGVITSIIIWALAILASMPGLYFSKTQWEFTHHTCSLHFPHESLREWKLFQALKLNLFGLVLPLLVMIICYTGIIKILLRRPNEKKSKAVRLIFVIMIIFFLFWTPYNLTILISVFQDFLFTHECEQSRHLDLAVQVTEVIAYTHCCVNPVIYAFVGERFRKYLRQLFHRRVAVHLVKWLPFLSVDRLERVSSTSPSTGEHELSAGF

Series [6] deals with T2, Muscarinic acetylcholine receptor M2 (Homo sapiens, UniProt P08172).
T2 sequence (P08172 whole entry): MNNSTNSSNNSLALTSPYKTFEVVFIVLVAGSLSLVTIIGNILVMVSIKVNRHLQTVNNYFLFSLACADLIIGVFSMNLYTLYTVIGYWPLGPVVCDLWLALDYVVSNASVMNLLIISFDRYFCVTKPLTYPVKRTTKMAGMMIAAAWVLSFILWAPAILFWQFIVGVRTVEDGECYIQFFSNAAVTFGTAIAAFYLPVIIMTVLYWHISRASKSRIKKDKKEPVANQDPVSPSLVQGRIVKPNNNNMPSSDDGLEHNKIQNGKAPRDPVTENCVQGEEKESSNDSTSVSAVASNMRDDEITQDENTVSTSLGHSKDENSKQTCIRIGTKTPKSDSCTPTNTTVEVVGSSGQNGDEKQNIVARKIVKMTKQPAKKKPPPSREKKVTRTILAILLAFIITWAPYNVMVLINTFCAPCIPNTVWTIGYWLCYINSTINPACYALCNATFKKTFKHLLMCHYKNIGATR
Description: Binding affinity to muscarinic M2 receptor

A short description of a further series: physchem. To be noted: octanol/water.
In series [7] the target is T1, C-C chemokine receptor type 1. Put plainly: Antagonist activity at CCR1. Format: functional.
Series [8] in a line: Half life in human. It is filed as ADME, organism-based. To be noted: in vivo.
Series [9] is described as follows: Binding affinity to rat CCR1 by radioligand binding assay.
Series [10] addresses C-C chemokine receptor type 2 (Homo sapiens, UniProt P41597).

Sequence of C-C chemokine receptor type 2 (P41597 whole entry): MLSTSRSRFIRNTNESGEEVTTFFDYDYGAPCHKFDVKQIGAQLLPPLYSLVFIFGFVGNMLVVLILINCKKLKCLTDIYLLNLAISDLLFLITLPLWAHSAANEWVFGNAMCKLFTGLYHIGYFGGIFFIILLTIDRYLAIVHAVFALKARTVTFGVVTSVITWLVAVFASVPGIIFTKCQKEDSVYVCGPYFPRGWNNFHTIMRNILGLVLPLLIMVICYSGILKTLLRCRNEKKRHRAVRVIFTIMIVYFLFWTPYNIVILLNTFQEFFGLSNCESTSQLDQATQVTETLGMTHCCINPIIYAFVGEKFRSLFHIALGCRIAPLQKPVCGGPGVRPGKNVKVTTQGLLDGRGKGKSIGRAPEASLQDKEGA
Description for physchem: Lipophilicity, log P of the compound

By bioavailability is commonly meant the share of a dose that reaches the circulation, judged against a reference dose that is usually intravenous. Read a high bioavailability as much systemic uptake. Usually half-life stands for the time needed for the level to fall by half in the phase considered. The Ki is the dissociation constant of the complex between target and ligand, obtained from inhibition or displacement. A higher Ki goes with a looser hold on the target. Usually logP stands for the decadic logarithm of the partition coefficient of the neutral form, usually between octanol and water. Low readings indicate a more hydrophilic compound, high ones a more lipophilic compound. For the compound `CC1(C)CN(CC/C=C2/c3cc(C(=O)O)ccc3OCc3ncccc32)C[C@H](c2ccc(Cl)cc2)[C@H]1O`, the bioavailability in series [1] was determined as 100%; in series [3], 35%. In [2], this compound had a half-life of 3 h. Moreover, the EC50 in the series listed under Cavia porcellus was 0.03 mg/kg. In addition, the results for the inhibitory constant (Ki) in series [4], in series [5] and in series [6] were 1 nM, 2.3 nM and 1.3 nM, respectively. The compound further returned a logP in “physchem” of 5.1.
In general, IC50 refers to the concentration that inhibits the measured activity by half. For the compound `CO[C@@H]1COCC[C@@H]1NC1CC[C@@](C(=O)N2CCc3ncc(C(F)(F)F)cc3C2)(C(C)C)C1` (some centres not stated), the 50% inhibitory concentration (IC50) in series [7] was 5 nM. This lies in the single-digit nanomolar range.
What is called Kd is the free concentration of one partner at which half of the binding sites on the other are occupied at equilibrium, for simple one-to-one binding. For `C[C@@H]1CN(Cc2ccc(F)cc2)CCN1C(=O)COc1ccc(Cl)cc1NC(N)=O` [BX 471 FREE BASE], the half-life in series [8] was 2.3 h. In series [9], this compound gave a Kd of 121 nM.
In [10], `Cc1cnc(C(=O)c2ncnc3[nH]ccc23)c(NS(=O)(=O)c2ccc(Cl)c(C(F)(F)F)c2)c1` [ILACIRNON] registered a half-inhibitory concentration (IC50) of 5 nM.

For the origin of these results see ChEMBL document CHEMBL2176887, “Chemokine receptor antagonists” (J Med Chem, 2012).
